Measurements reported in patent publication US20220193081A1 (Ellamed IP & Services PTE. LTD., priority 2019, published 2022).

How the values were obtained:
[1] = Visual inspection on storage of sildenafil citrate with equal concentration of sucralose in pH adjusted 50% ethanol (Example 2); assay type: physicochemical
Description: (§1) At room temperature, a phosphate buffer was prepared by weighing 3.9 g of NaH2PO4.2H2O into a 500 mL volumetric flask and adding approximately 300 mL of purified water until the phosphate fully dissolved. The pH was then adjusted to 7 with the introduction of NaOH and dilute to the requisite volume by the further addition of purified water.
(§2) A 50% ethanol mixture was prepared by introducing either purified water, taken from a MilliQ™ unit or phosphate buffer, to equivalent volumes of Ph.Eur. grade absolute alcohol. The pH of the resultant mixture was then adjusted by using either NaOH 1N solutions and/or Sodium Citrate 1N solutions to reach predetermined pH values.
(§3) Samples of sucralose were then dissolved in the pH adjusted 50% ethanol, whilst stirred with a magnetic stirrer and a needle, to a predetermined concentration. […] After preparation, the solutions were each filtered through PDVF 0.22 micro filter of 13 mm in size and placed in polypropylene containers of adequate volume.
(§4) Before being placed on storage, and at time points 7 and 42 days, the concentration of sildenafil in the mixture was assayed using HPLC. The samples were then stored at either −20° C., 2-8° C. or 25° C. for periods of up to 42 days. Periodically, the samples were visually inspected for evidence of precipitation or crystallization. […]

[2] = HPLC assay on storage of sildenafil citrate with equal concentration of sucralose in pH adjusted 50% ethanol (Example 2); assay type: physicochemical
Description: as §1, §2, §3, §4
The samples of 21 mg/ml at a pH of 5.6 were maintained in stability testing at 25° C. for a total of 285 days.

## CCCc1nn(C)c2c(=O)nc(-c3cc(S(=O)(=O)N4CCN(C)CC4)ccc3OCC)[nH]c12.O=C(O)CC(O)(CC(=O)O)C(=O)O [sildenafil citrate, 1-[[3-(4,7-Dihydro-1-methyl-7-oxo-3-propyl-1H-pyrazolo[4,3-d]pyrimidin-5-yl)-4-ethoxyphenyl]sulfonyl]-4-methylpiperazine citrate salt]
[1]; 15 mg/ml, pH 5.0, Sodium Citrate, 2-8° C.
  visual inspection for precipitation or crystallization: Prec.
[1]; 15 mg/ml, pH 5.0, Sodium Citrate, 25° C.
  visual inspection for precipitation or crystallization: Prec.
[1]; 15 mg/ml, pH 5.0, Sodium Citrate, −20° C.
  visual inspection for precipitation or crystallization: Prec.
[1]; 15 mg/ml, pH 5.2, NaOH, −20° C.
  visual inspection for precipitation or crystallization: Prec.
[1]; 15 mg/ml, pH 6.01, NaOH, 50% ethanol/phosphate buffer, 2-8° C.
  visual inspection for precipitation or crystallization: Prec.
[1]; 15 mg/ml, pH 6.01, NaOH, 50% ethanol/phosphate buffer, −20° C.
  visual inspection for precipitation or crystallization: Prec.
[1]; 15 mg/ml, pH 6.2, NaOH, 2-8° C.
  visual inspection for precipitation or crystallization: Prec.
[1]; 15 mg/ml, pH 6.2, NaOH, 25° C.
  visual inspection for precipitation or crystallization: Prec.
[1]; 15 mg/ml, pH 6.2, NaOH, −20° C.
  visual inspection for precipitation or crystallization: Prec.
[1]; 15 mg/ml, pH 6.2, Sodium Citrate, 2-8° C.
  visual inspection for precipitation or crystallization: Prec.
[1]; 15 mg/ml, pH 6.2, Sodium Citrate, −20° C.
  visual inspection for precipitation or crystallization: Prec.
[1]; 18 mg/ml, pH 5.2, NaOH, −20° C.
  visual inspection for precipitation or crystallization: Prec.
[1]; 18 mg/ml, pH 5.2, Sodium Citrate, −20° C.
  visual inspection for precipitation or crystallization: Prec.
[1]; 18 mg/ml, pH 6.0, NaOH, 50% ethanol/phosphate buffer, 2-8° C.
  visual inspection for precipitation or crystallization: Prec.
[1]; 18 mg/ml, pH 6.0, NaOH, 50% ethanol/phosphate buffer, −20° C.
  visual inspection for precipitation or crystallization: Prec.
[1]; 18 mg/ml, pH 6.0, Sodium Citrate, 2-8° C.
  visual inspection for precipitation or crystallization: Prec.
[1]; 18 mg/ml, pH 6.0, Sodium Citrate, −20° C.
  visual inspection for precipitation or crystallization: Prec.
[1]; 18 mg/ml, pH 6.2, NaOH, 2-8° C.
  visual inspection for precipitation or crystallization: Prec.
[1]; 18 mg/ml, pH 6.2, NaOH, 25° C.
  visual inspection for precipitation or crystallization: Prec.
[1]; 18 mg/ml, pH 6.2, NaOH, −20° C.
  visual inspection for precipitation or crystallization: Prec.
[1]; 21 mg/ml, pH 5.29, NaOH, 50% ethanol/phosphate buffer, −20° C.
  visual inspection for precipitation or crystallization: Prec.
[1]; 21 mg/ml, pH 5.5, NaOH, −20° C.
  visual inspection for precipitation or crystallization: Prec.
[1]; 21 mg/ml, pH 5.5, Sodium Citrate, −20° C.
  visual inspection for precipitation or crystallization: Prec.
[1]; 21 mg/ml, pH 5.6, NaOH, 50% ethanol/phosphate buffer, 2-8° C.
  visual inspection for precipitation or crystallization: Prec.
[1]; 21 mg/ml, pH 5.6, NaOH, 50% ethanol/phosphate buffer, −20° C.
  visual inspection for precipitation or crystallization: Prec.
[1]; 21 mg/ml, pH 5.8, NaOH, 2-8° C.
  visual inspection for precipitation or crystallization: Prec.
[1]; 21 mg/ml, pH 6.01, NaOH, 50% ethanol/phosphate buffer, 2-8° C.
  visual inspection for precipitation or crystallization: Prec.
[1]; 21 mg/ml, pH 6.01, NaOH, 50% ethanol/phosphate buffer, −20° C.
  visual inspection for precipitation or crystallization: Prec.
[2]; 15 mg/ml, pH 5.0, Sodium Citrate, 2-8 ° C., Day 7
  concentration of sildenafil by HPLC: 11050 µg/mL
[2]; 15 mg/ml, pH 5.0, Sodium Citrate, 25 ° C., Day 7
  concentration of sildenafil by HPLC: 14890 µg/mL
[2]; 15 mg/ml, pH 5.0, Sodium Citrate, Day 0
  concentration of sildenafil by HPLC: 15220 µg/mL
[2]; 15 mg/ml, pH 5.2, NaOH, 2-8 ° C., Day 7
  concentration of sildenafil by HPLC: 14990 µg/mL
[2]; 15 mg/ml, pH 5.2, NaOH, 25 ° C., Day 7
  concentration of sildenafil by HPLC: 15010 µg/mL
[2]; 15 mg/ml, pH 5.2, NaOH, Day 0
  concentration of sildenafil by HPLC: 15050 µg/mL
[2]; 15 mg/ml, pH 5.24, NaOH, 50% ethanol/phosphate buffer, 2-8 ° C., Day 7
  concentration of sildenafil by HPLC: 14970 µg/mL
[2]; 15 mg/ml, pH 5.24, NaOH, 50% ethanol/phosphate buffer, 25 ° C., Day 7
  concentration of sildenafil by HPLC: 15010 µg/mL
[2]; 15 mg/ml, pH 5.24, NaOH, 50% ethanol/phosphate buffer, Day 0
  concentration of sildenafil by HPLC: 15060 µg/mL
[2]; 15 mg/ml, pH 5.6, NaOH, 2-8 ° C., Day 7
  concentration of sildenafil by HPLC: 15030 µg/mL
[2]; 15 mg/ml, pH 5.6, NaOH, 2-8 ° C., Day 42
  concentration of sildenafil by HPLC: 15050 µg/mL
[2]; 15 mg/ml, pH 5.6, NaOH, 25 ° C., Day 7
  concentration of sildenafil by HPLC: 14930 µg/mL
[2]; 15 mg/ml, pH 5.6, NaOH, 25 ° C., Day 42
  concentration of sildenafil by HPLC: 14970 µg/mL
[2]; 15 mg/ml, pH 5.6, NaOH, 50% ethanol/phosphate buffer, 2-8 ° C., Day 7
  concentration of sildenafil by HPLC: 14920 µg/mL
[2]; 15 mg/ml, pH 5.6, NaOH, 50% ethanol/phosphate buffer, 25 ° C., Day 7
  concentration of sildenafil by HPLC: 14940 µg/mL
[2]; 15 mg/ml, pH 5.6, NaOH, 50% ethanol/phosphate buffer, Day 0
  concentration of sildenafil by HPLC: 14960 µg/mL
[2]; 15 mg/ml, pH 5.6, NaOH, Day 0
  concentration of sildenafil by HPLC: 15140 µg/mL
[2]; 15 mg/ml, pH 5.6, Sodium Citrate, 2-8 ° C., Day 7
  concentration of sildenafil by HPLC: 14800 µg/mL
[2]; 15 mg/ml, pH 5.6, Sodium Citrate, 2-8 ° C., Day 42
  concentration of sildenafil by HPLC: 15040 µg/mL
[2]; 15 mg/ml, pH 5.6, Sodium Citrate, 25 ° C., Day 7
  concentration of sildenafil by HPLC: 14790 µg/mL
[2]; 15 mg/ml, pH 5.6, Sodium Citrate, 25 ° C., Day 42
  concentration of sildenafil by HPLC: 14880 µg/mL
[2]; 15 mg/ml, pH 5.6, Sodium Citrate, Day 0
  concentration of sildenafil by HPLC: 14920 µg/mL
[2]; 15 mg/ml, pH 6.01, NaOH, 50% ethanol/phosphate buffer, 2-8 ° C., Day 7
  concentration of sildenafil by HPLC: 14690 µg/mL
[2]; 15 mg/ml, pH 6.01, NaOH, 50% ethanol/phosphate buffer, 25 ° C., Day 7
  concentration of sildenafil by HPLC: 14830 µg/mL
[2]; 15 mg/ml, pH 6.01, NaOH, 50% ethanol/phosphate buffer, Day 0
  concentration of sildenafil by HPLC: 14830 µg/mL
[2]; 15 mg/ml, pH 6.2, NaOH, 2-8 ° C., Day 7
  concentration of sildenafil by HPLC: 10420 µg/mL
[2]; 15 mg/ml, pH 6.2, NaOH, 25 ° C., Day 7
  concentration of sildenafil by HPLC: 11750 µg/mL
[2]; 15 mg/ml, pH 6.2, NaOH, Day 0
  concentration of sildenafil by HPLC: 15140 µg/mL
[2]; 15 mg/ml, pH 6.2, Sodium Citrate, 2-8 ° C., Day 7
  concentration of sildenafil by HPLC: 11110 µg/mL
[2]; 15 mg/ml, pH 6.2, Sodium Citrate, 25 ° C., Day 7
  concentration of sildenafil by HPLC: 12100 µg/mL
[2]; 15 mg/ml, pH 6.2, Sodium Citrate, Day 0
  concentration of sildenafil by HPLC: 14750 µg/mL
[2]; 18 mg/ml, pH 5.2, NaOH, 2-8 ° C., Day 7
  concentration of sildenafil by HPLC: 17890 µg/mL
[2]; 18 mg/ml, pH 5.2, NaOH, 25 ° C., Day 7
  concentration of sildenafil by HPLC: 17930 µg/mL
[2]; 18 mg/ml, pH 5.2, NaOH, Day 0
  concentration of sildenafil by HPLC: 18230 µg/mL
[2]; 18 mg/ml, pH 5.2, Sodium Citrate, Day 0
  concentration of sildenafil by HPLC: 18090 µg/mL
[2]; 18 mg/ml, pH 5.3, NaOH, 50% ethanol/phosphate buffer, 2-8 ° C., Day 7
  concentration of sildenafil by HPLC: 18050 µg/mL
[2]; 18 mg/ml, pH 5.3, NaOH, 50% ethanol/phosphate buffer, 25 ° C., Day 7
  concentration of sildenafil by HPLC: 18070 µg/mL
[2]; 18 mg/ml, pH 5.3, NaOH, 50% ethanol/phosphate buffer, Day 0
  concentration of sildenafil by HPLC: 18070 µg/mL
[2]; 18 mg/ml, pH 5.6, NaOH, 2-8 ° C., Day 7
  concentration of sildenafil by HPLC: 17860 µg/mL
